From ChEMBL document CHEMBL3885881, “DrugMatrix”

Organism: Rattus norvegicus
Assay: DrugMatrix - Regimen: Daily Repeat
Type: toxicity, organism-based, Sprague-Dawley
Parameters: regimen Daily Repeat, gender Male, age 6-8 weeks
Details: in vivo, iv, vehicle 100 % SALINE; for ABSOLUTE BASOPHIL / ABSOLUTE EOSINOPHIL / ABSOLUTE LYMPHOCYTE / ABSOLUTE MONOCYTE / ABSOLUTE SEGMENTED NEUTROPHIL / BASOPHIL / EOSINOPHIL / ERYTHROCYTE COUNT / HEMATOCRIT / HEMOGLOBIN / LEUKOCYTE COUNT / LYMPHOCYTE / MEAN CORPUSCULAR HEMOGLOBIN / MEAN CORPUSCULAR HEMOGLOBIN CONCENTRATION / MEAN CORPUSCULAR VOLUME / MONOCYTE / NEUTROPHIL / NUCLEATED RED BLOOD CELLS / PLATELET COUNT: tissue Blood; for ALANINE AMINOTRANSFERASE / ALBUMIN / ALKALINE PHOSPHATASE / ASPARTATE AMINOTRANSFERASE / BLOOD UREA NITROGEN / CARBON DIOXIDE / CHLORIDE / CHOLESTEROL / CREATINE PHOSPHOKINASE / CREATININE / GLUCOSE / LACTATE DEHYDROGENASE / LIPASE / PHOSPHORUS / POTASSIUM / SODIUM / TOTAL BILIRUBIN / TOTAL PROTEIN / URIC ACID: tissue Plasma
[1] = 200 mg/kg, 120 h, dose level Low, time 5 day
[2] = 800 mg/kg, 72 h, dose level High, time 3 day
[3] = 800 mg/kg, 120 h, dose level High, time 5 day

CC1(C)S[C@@H]2[C@H](NC(=O)[C@H](NC(=O)N3CCNC3=O)c3ccccc3)C(=O)N2[C@H]1C(=O)O [AZLOCILLIN]
ABSOLUTE BASOPHIL [1]: 0 CELLS/uL | ABSOLUTE EOSINOPHIL [1]: 0 CELLS/uL | ABSOLUTE LYMPHOCYTE [1]: 10606.67 CELLS/uL | ABSOLUTE MONOCYTE [1]: 46.67 CELLS/uL | ABSOLUTE SEGMENTED NEUTROPHIL [1]: 980 CELLS/uL | BASOPHIL [1]: 0% | EOSINOPHIL [1]: 0% | ERYTHROCYTE COUNT [1]: 5.98 x10E6/uL | HEMATOCRIT [1]: 35.9% | HEMOGLOBIN [1]: 14.17 G/DL | LEUKOCYTE COUNT [1]: 11.63 x10E3/uL | LYMPHOCYTE [1]: 91.33% | MEAN CORPUSCULAR HEMOGLOBIN [1]: 23.7 pg | MEAN CORPUSCULAR HEMOGLOBIN CONCENTRATION [1]: 39.5 G/DL | MEAN CORPUSCULAR VOLUME [1]: 60.07 fL | MONOCYTE [1]: 0.33% | NEUTROPHIL [1]: 8.33% | NUCLEATED RED BLOOD CELLS [1]: 0.33 /100WBC | PLATELET COUNT [1]: 1262 x10E3/uL | ALANINE AMINOTRANSFERASE [1]: 76 u/L | ALBUMIN [1]: 4.17 G/DL | ALKALINE PHOSPHATASE [1]: 302.33 u/L | ASPARTATE AMINOTRANSFERASE [1]: 91.67 u/L | BLOOD UREA NITROGEN [1]: 17.67 mg/dL | CARBON DIOXIDE [1]: 25.67 mmol/L | CHLORIDE [1]: 101 MEQ/L | CHOLESTEROL [1]: 73 mg/dL | CREATINE PHOSPHOKINASE [1]: 333.33 u/L | CREATININE [1]: 0.19 mg/dL | GLUCOSE [1]: 172.67 mg/dL | LACTATE DEHYDROGENASE [1]: 301 u/L | LIPASE [1]: 9.33 u/L | PHOSPHORUS [1]: 11.1 mg/dL | POTASSIUM [1]: 5.74 MEQ/L | SODIUM [1]: 144.37 MEQ/L | TOTAL BILIRUBIN [1]: 0.13 mg/dL | TOTAL PROTEIN [1]: 6.33 G/DL | URIC ACID [1]: 1.6 mg/dL | ABSOLUTE BASOPHIL [2]: 0 CELLS/uL | ABSOLUTE EOSINOPHIL [2]: 64.67 CELLS/uL | ABSOLUTE LYMPHOCYTE [2]: 11014.33 CELLS/uL | ABSOLUTE MONOCYTE [2]: 68.67 CELLS/uL | ABSOLUTE SEGMENTED NEUTROPHIL [2]: 1119 CELLS/uL | BASOPHIL [2]: 0% | EOSINOPHIL [2]: 0.33% | ERYTHROCYTE COUNT [2]: 5.5 x10E6/uL | HEMATOCRIT [2]: 34.53% | HEMOGLOBIN [2]: 13.63 G/DL | LEUKOCYTE COUNT [2]: 12.27 x10E3/uL | LYMPHOCYTE [2]: 90.67% | MEAN CORPUSCULAR HEMOGLOBIN [2]: 24.87 pg | MEAN CORPUSCULAR HEMOGLOBIN CONCENTRATION [2]: 39.5 G/DL | MEAN CORPUSCULAR VOLUME [2]: 62.9 fL | MONOCYTE [2]: 0.67% | NEUTROPHIL [2]: 8.33% | NUCLEATED RED BLOOD CELLS [2]: 0 /100WBC | PLATELET COUNT [2]: 1200 x10E3/uL | ALANINE AMINOTRANSFERASE [2]: 47.33 u/L | ALBUMIN [2]: 4.13 G/DL | ALKALINE PHOSPHATASE [2]: 350 u/L | ASPARTATE AMINOTRANSFERASE [2]: 79.33 u/L | BLOOD UREA NITROGEN [2]: 15.67 mg/dL | CARBON DIOXIDE [2]: 32.67 mmol/L | CHLORIDE [2]: 98.33 MEQ/L | CHOLESTEROL [2]: 83 mg/dL | CREATINE PHOSPHOKINASE [2]: 313.33 u/L | CREATININE [2]: 0.15 mg/dL | GLUCOSE [2]: 135.67 mg/dL | LACTATE DEHYDROGENASE [2]: 118 u/L | LIPASE [2]: 9.67 u/L | PHOSPHORUS [2]: 10.5 mg/dL | POTASSIUM [2]: 6.4 MEQ/L | SODIUM [2]: 143.1 MEQ/L | TOTAL BILIRUBIN [2]: 0.23 mg/dL | TOTAL PROTEIN [2]: 5.9 G/DL | URIC ACID [2]: 1.33 mg/dL | ABSOLUTE BASOPHIL [3]: 0 CELLS/uL | ABSOLUTE EOSINOPHIL [3]: 0 CELLS/uL | ABSOLUTE LYMPHOCYTE [3]: 11750 CELLS/uL | ABSOLUTE MONOCYTE [3]: 375 CELLS/uL | ABSOLUTE SEGMENTED NEUTROPHIL [3]: 375 CELLS/uL | BASOPHIL [3]: 0% | EOSINOPHIL [3]: 0% | ERYTHROCYTE COUNT [3]: 6.36 x10E6/uL | HEMATOCRIT [3]: 36.8% | HEMOGLOBIN [3]: 14.2 G/DL | LEUKOCYTE COUNT [3]: 12.5 x10E3/uL | LYMPHOCYTE [3]: 94% | MEAN CORPUSCULAR HEMOGLOBIN [3]: 22.3 pg | MEAN CORPUSCULAR HEMOGLOBIN CONCENTRATION [3]: 38.6 G/DL | MEAN CORPUSCULAR VOLUME [3]: 57.9 fL | MONOCYTE [3]: 3% | NEUTROPHIL [3]: 3% | NUCLEATED RED BLOOD CELLS [3]: 0 /100WBC | PLATELET COUNT [3]: 1139 x10E3/uL | ALANINE AMINOTRANSFERASE [3]: 42 u/L | ALBUMIN [3]: 3.7 G/DL | ALKALINE PHOSPHATASE [3]: 225 u/L | ASPARTATE AMINOTRANSFERASE [3]: 68 u/L | BLOOD UREA NITROGEN [3]: 22 mg/dL | CARBON DIOXIDE [3]: 25 mmol/L | CHLORIDE [3]: 102 MEQ/L | CHOLESTEROL [3]: 82 mg/dL | CREATINE PHOSPHOKINASE [3]: 168 u/L | CREATININE [3]: 0.27 mg/dL | GLUCOSE [3]: 198 mg/dL | LACTATE DEHYDROGENASE [3]: 104 u/L | LIPASE [3]: 9 u/L | PHOSPHORUS [3]: 10.1 mg/dL | POTASSIUM [3]: 5.6 MEQ/L | SODIUM [3]: 144.4 MEQ/L | TOTAL BILIRUBIN [3]: 0.2 mg/dL | TOTAL PROTEIN [3]: 6.1 G/DL | URIC ACID [3]: 2.2 mg/dL
